Results on 15 compounds are retold here after US20240208968A1, “ALPHA V BETA 6 AND ALPHA V BETA 1 INTEGRIN INHIBITORS AND USES THEREOF” (DiCE Molecules SV, Inc., priority 2021, published 2024).

For experiment [1], the target named is αvβ6 (Homo sapiens, UniProt P06756+P18564). Nature of the experiment: Solid Phase Integrin αvβ6 Assay. The format is binding. The gist of the method:
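Inhibition of αvβ6 binding to immobilized recombinant TGFb1-LAP (1 μg/mL coating), 1 h at room temperature with 1 mM MnCl2 in BSA/TBST buffer, integrin diluted to 0.2 μg/mL before addition. Streptavidin-HRP/TMB read-out; four-parameter logistic fitting gave IC50.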

Experiment [2] has as its target αvβ1 (Homo sapiens, UniProt P05556+P06756). As to the kind of experiment: Solid Phase Integrin αvβ1 Assay. The format is binding. Put shortly:
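Compound competes for αvβ1 binding to immobilized TGFb1-LAP (1 µg/mL coat) in Mn2+ (1 mM MnCl2), 2% BSA binding buffer over 90 min at room temperature, integrin added at 0.2 µg/mL. Read-out: streptavidin-HRP/TMB; IC50 from Levenberg-Marquardt four-parameter fit.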

Molecules are shown by their SMILES. Counter-ions that a name gives are not always drawn.

By IC50 is commonly meant the point on the concentration scale where inhibition reaches its midpoint. A higher IC50 goes with weaker potency.

Sequence of αvβ6 (P06756 31-992 limits assumed): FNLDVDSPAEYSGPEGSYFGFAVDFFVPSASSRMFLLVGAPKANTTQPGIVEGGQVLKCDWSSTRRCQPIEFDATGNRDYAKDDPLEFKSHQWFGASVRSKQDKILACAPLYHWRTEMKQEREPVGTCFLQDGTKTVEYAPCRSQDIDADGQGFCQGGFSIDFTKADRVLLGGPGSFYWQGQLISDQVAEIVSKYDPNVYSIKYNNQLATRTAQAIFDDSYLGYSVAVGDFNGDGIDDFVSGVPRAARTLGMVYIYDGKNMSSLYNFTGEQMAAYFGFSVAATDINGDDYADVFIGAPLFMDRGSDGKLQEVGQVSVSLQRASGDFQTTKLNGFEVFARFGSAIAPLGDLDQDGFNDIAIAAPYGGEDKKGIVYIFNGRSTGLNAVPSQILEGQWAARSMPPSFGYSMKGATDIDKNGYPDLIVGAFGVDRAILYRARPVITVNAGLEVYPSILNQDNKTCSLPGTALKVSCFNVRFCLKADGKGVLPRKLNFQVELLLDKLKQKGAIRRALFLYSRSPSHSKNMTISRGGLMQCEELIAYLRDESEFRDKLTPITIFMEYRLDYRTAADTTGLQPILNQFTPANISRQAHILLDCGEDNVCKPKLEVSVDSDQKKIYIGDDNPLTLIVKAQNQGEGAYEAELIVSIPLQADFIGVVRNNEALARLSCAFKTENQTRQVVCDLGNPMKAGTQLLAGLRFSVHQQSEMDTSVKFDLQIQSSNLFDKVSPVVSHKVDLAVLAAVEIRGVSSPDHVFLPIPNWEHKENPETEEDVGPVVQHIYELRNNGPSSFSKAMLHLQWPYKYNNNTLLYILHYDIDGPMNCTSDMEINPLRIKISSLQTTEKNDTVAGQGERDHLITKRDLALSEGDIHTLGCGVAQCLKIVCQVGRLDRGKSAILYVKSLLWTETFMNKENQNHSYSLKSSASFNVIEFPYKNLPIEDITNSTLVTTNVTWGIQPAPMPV
Sequence of αvβ6 (P18564 22-707 limits assumed): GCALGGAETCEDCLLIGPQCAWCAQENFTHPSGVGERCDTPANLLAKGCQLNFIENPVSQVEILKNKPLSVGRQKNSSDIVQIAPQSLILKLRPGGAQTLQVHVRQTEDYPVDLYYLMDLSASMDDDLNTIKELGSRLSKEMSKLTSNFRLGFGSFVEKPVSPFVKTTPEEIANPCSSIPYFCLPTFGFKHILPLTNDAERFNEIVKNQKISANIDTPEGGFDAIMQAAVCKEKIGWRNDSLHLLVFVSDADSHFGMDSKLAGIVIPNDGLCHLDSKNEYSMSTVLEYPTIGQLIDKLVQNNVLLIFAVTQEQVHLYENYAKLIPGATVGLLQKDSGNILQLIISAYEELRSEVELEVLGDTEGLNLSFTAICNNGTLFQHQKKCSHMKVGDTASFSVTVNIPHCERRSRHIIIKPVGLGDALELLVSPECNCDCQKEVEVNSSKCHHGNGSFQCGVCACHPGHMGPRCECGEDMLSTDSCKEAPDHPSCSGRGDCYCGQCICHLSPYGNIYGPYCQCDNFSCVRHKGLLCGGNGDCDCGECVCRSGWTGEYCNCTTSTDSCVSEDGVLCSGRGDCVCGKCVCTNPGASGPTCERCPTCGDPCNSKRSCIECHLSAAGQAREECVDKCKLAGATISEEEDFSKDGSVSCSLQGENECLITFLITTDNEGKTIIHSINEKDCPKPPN
Sequence of αvβ1 (P06756 31-992 limits assumed): as the sequence (P06756 31-992 limits assumed) above
Sequence of αvβ1 (P05556 21-728 limits assumed): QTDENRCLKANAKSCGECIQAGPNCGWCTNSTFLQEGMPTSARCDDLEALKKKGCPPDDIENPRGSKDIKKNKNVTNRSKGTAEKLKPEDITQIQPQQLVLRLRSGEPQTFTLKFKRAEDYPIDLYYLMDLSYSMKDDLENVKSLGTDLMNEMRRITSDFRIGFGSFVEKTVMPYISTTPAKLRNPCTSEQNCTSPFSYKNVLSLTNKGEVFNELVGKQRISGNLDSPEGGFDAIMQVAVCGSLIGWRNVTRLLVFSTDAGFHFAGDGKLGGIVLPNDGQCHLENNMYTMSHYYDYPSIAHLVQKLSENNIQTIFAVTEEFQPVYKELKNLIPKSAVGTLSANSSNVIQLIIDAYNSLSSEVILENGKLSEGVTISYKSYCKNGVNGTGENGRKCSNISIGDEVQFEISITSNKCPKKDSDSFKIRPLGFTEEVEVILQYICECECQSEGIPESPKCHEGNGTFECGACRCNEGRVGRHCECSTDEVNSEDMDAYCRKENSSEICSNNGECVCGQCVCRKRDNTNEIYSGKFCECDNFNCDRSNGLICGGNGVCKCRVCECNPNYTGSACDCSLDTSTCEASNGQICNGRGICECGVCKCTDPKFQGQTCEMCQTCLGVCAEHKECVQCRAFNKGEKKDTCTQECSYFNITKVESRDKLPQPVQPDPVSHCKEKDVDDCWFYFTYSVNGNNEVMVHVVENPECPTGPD

Consider `O=C(O)C[C@@H](NC(=O)[C@@H]1CCCN(CCCc2ccc3c(n2)NCCC3)C1)c1cccc2c1CCCC2` [Compound 212-B, 3-((R)-1-(3-(5,6,7,8-tetrahydro-1,8-naphthyridin-2-yl)propyl)piperidine-3-carboxamido)-3-(5,6,7,8-tetrahydronaphthalen-1-yl)propanoic acid], for which the results for the IC50 in experiment [1] and in experiment [2] were less than 0.1 µM and 0.1 to 1 µM, respectively.

On to `O=C(O)[C@H](CO[C@@H]1CCCN(CCCc2ccc3c(n2)NCCC3)C1)c1ccccc1` [Compound 350], for which the IC50 in experiment [1] and in experiment [2] was more than 1 µM in each case.

As for `O=C(O)C[C@H](CO[C@@H]1CCCN(CCCc2ccc3c(n2)NCCC3)C1)c1cc(C2CC2)ccc1F` [Compound 481], the 50% inhibitory concentration (IC50) in experiment [1] and in experiment [2] was less than 0.1 µM in each case.

Take `O=C(O)C[C@@H](NC(=O)[C@@H]1CCCN(CCCc2ccc3c(n2)NCCC3)C1)c1ccc2nccnc2c1` [Compound 215-B, 3-(quinoxalin-6-yl)-3-((R)-1-(3-(5,6,7,8-tetrahydro-1,8-naphthyridin-2-yl)propyl)piperidine-3-carboxamido)propanoic acid]: the IC50 in experiment [1] and in experiment [2] was less than 0.1 µM in each case.

As for `COc1ccc(C(C)C)c(C(CC(=O)O)NC(=O)[C@@H]2CCCN(CCCc3ccc4c(n3)NCCC4)C2)c1` (stereo partly drawn) [Compound 210, 3-(2-isopropyl-5-methoxyphenyl)-3-((R)-1-(3-(5,6,7,8-tetrahydro-1,8-naphthyridin-2-yl)propyl)piperidine-3-carboxamido)propanoic acid hydrochloride], the half-maximal inhibitory concentration (IC50) in experiment [1] and in experiment [2] was 0.1 to 1 µM each time.

As to `O=C(O)C[C@H](NC(=O)[C@@H]1CCCN(CCCc2ccc3c(n2)NCCC3)C1)c1cccc(OC2COC2)c1` [Compound 535], the IC50 in experiment [1] and in experiment [2] was less than 0.1 µM in each case.

As for `O=C(O)C[C@H](O[C@@H]1CCCN(CCCc2ccc3c(n2)NCCC3)C1)c1ccccc1` [Compound 349], the IC50 in experiment [1] and in experiment [2] was more than 1 µM each time.

Turning to `CN1CCN(c2cccc([C@H](CC(=O)O)NC(=O)[C@@H]3CCCN(CCCc4ccc5c(n4)NCCC5)C3)c2)CC1` [Compound 228, (S)-3-(3-(4-methylpiperazin-1-yl)phenyl)-3-((R)-1-(3-(5,6,7,8-tetrahydro-1,8-naphthyridin-2-yl)propyl)piperidine-3-carboxamido)propanoic acid], the IC50 in experiment [1] and in experiment [2] was less than 0.1 µM in each case.

With `O=C(NC[C@@H](C(=O)O)c1cccc2c1CCC2)[C@@H]1CCCN(CCCc2ccc3c(n2)NCCC3)C1` [Compound 561], the IC50 in experiment [1] and in experiment [2] was less than 0.1 µM in each case.

In the case of `C[C@H]1CN(c2cccc([C@H](CNC(=O)[C@@H]3CCCN(CCCc4ccc5c(n4)NCCC5)C3)C(=O)O)c2)C[C@H](C)O1` [Compound 603], the IC50 in experiment [1] and in experiment [2] was less than 0.1 µM in each case.

For the compound `O=C(O)[C@@H](CCO[C@@H]1CCCN(CCCc2ccc3c(n2)NCCC3)C1)c1cccc2nn(CC3CC3)cc12` [Compound 487], the half-maximal inhibitory concentration (IC50) in experiment [1] and in experiment [2] was less than 0.1 µM throughout.

As for `O=C(O)[C@@H](CO[C@@H]1CCCN(Cc2ccc3c(n2)NCCC3)C1)Nc1ncnc2ccccc12` [Compound 411], the IC50 in experiment [1] and in experiment [2] was more than 1 µM each time.

For the compound `O=C(O)[C@H](c1ccccc1)[C@H](O)CO[C@@H]1CCCN(CCCc2ccc3c(n2)NCCC3)C1` [Compound 611], the 50% inhibitory concentration (IC50) in experiment [1] and in experiment [2] was more than 1 µM throughout.

Consider `O=C(O)[C@](O)(CO[C@@H]1CCCN(CCCc2ccc3c(n2)NCCC3)C1)c1ccccc1` [Compound 452], for which the IC50 in experiment [1] and in experiment [2] was more than 1 µM each time.

On to `O=C(O)C[C@H](NC(=O)[C@@H]1CCCN(CCCc2ccc3c(n2)NCCC3)C1)c1cc(Cl)cc(Cl)c1` [Compound 220, (S)-3-(3,5-dichlorophenyl)-3-((R)-1-(3-(5,6,7,8-tetrahydro-1,8-naphthyridin-2-yl)propyl)piperidine-3-carboxamido)propanoic acid], for which the half-maximal inhibitory concentration (IC50) in experiment [1] and in experiment [2] was less than 0.1 µM throughout.
